Results from the NIST ThermoML archive (doi:10.1016/j.jct.2011.08.019).
Where “and” joins values, the source holds several entries; their conditions need not be identical. Equal entries are not always repeated. Numbers after ± are expanded uncertainties.

Assay: molar heat capacity at constant pressure
Details: 101.33 kPa, Liquid, Small sample (50 mg) DSC

Row | SMILES | molar heat capacity at constant pressure (343.15 K) | molar heat capacity at constant pressure (348.15 K) | molar heat capacity at constant pressure (353.15 K) | molar heat capacity at constant pressure (358.15 K) | molar heat capacity at constant pressure (363.15 K) | molar heat capacity at constant pressure (368.15 K) | molar heat capacity at constant pressure (373.15 K) | molar heat capacity at constant pressure (378.15 K) | molar heat capacity at constant pressure (383.15 K) | molar heat capacity at constant pressure (388.15 K) | molar heat capacity at constant pressure (393.15 K) | molar heat capacity at constant pressure (398.15 K) | molar heat capacity at constant pressure (403.15 K) | molar heat capacity at constant pressure (408.15 K) | molar heat capacity at constant pressure (413.15 K) | molar heat capacity at constant pressure (418.15 K) | molar heat capacity at constant pressure (423.15 K) | molar heat capacity at constant pressure (428.15 K) | molar heat capacity at constant pressure (433.15 K) | molar heat capacity at constant pressure (438.15 K) | further results
1 | CCCCCCCCCCCCCC[P+](CCCCCC)(CCCCCC)CCCCCC.FC(F)(F)C(F)(F)[P-](F)(F)(F)(C(F)(F)C(F)(F)F)C(F)(F)C(F)(F)F | 1547.5 ± 160 J/K/mol [middle of 4 runs] | 1556.8 ± 160 J/K/mol [middle of 4 runs] | 1566.1 ± 160 J/K/mol and 1563.3 ± 160 J/K/mol | 1577.2 ± 160 J/K/mol and 1574.4 ± 160 J/K/mol | 1587.4 ± 160 J/K/mol and 1583.7 ± 160 J/K/mol and 1585.6 ± 160 J/K/mol | 1596.7 ± 160 J/K/mol [middle of 4 runs] | 1604.1 ± 160 J/K/mol [middle of 4 runs] | 1615.3 ± 160 J/K/mol [middle of 4 runs] | 1626.4 ± 160 J/K/mol [middle of 4 runs] | 1634.8 ± 170 J/K/mol | 1645 ± 170 J/K/mol [middle of 4 runs] | 1652.4 ± 170 J/K/mol [middle of 4 runs] | 1661.7 ± 170 J/K/mol [middle of 4 runs] | 1668.2 ± 170 J/K/mol and 1669.2 ± 170 J/K/mol | 1678.4 ± 170 J/K/mol and 1677.5 ± 170 J/K/mol | 1688.7 ± 170 J/K/mol and 1685.9 ± 170 J/K/mol and 1687.7 ± 170 J/K/mol | 1697 ± 170 J/K/mol [middle of 4 runs] | 1700.7 ± 170 J/K/mol [middle of 4 runs] | 1707.2 ± 170 J/K/mol and 1711 ± 170 J/K/mol | 1722.1 ± 170 J/K/mol [middle of 4 runs] | molar heat capacity at constant pressure (338.15 K): 1543.8 ± 160 J/K/mol [middle of 4 runs]; molar heat capacity at constant pressure (443.15 K): 1727.7 ± 170 J/K/mol [middle of 4 runs]; molar heat capacity at constant pressure (448.15 K): 1735.1 ± 180 J/K/mol [middle of 4 runs]; molar heat capacity at constant pressure (453.15 K): 1743.5 ± 180 J/K/mol [middle of 4 runs]; molar heat capacity at constant pressure (458.15 K): 1750 ± 180 J/K/mol and 1753.7 ± 180 J/K/mol and 1739.7 ± 180 J/K/mol; molar heat capacity at constant pressure (463.15 K): 1756.5 ± 180 J/K/mol [middle of 4 runs]; molar heat capacity at constant pressure (468.15 K): 1761.1 ± 180 J/K/mol [middle of 4 runs]; molar heat capacity at constant pressure (473.15 K): 1763.9 ± 180 J/K/mol [middle of 4 runs]; molar heat capacity at constant pressure (478.15 K): 1771.3 ± 180 J/K/mol [middle of 4 runs]; molar heat capacity at constant pressure (483.15 K): 1768.5 ± 180 J/K/mol and 1776 ± 180 J/K/mol and 1780.6 ± 180 J/K/mol; molar heat capacity at constant pressure (488.15 K): 1785.3 ± 180 J/K/mol [middle of 4 runs]; molar heat capacity at constant pressure (493.15 K): 1785.3 ± 180 J/K/mol [middle of 4 runs]; molar heat capacity at constant pressure (498.15 K): 1787.1 ± 180 J/K/mol [middle of 4 runs]; molar heat capacity at constant pressure (503.15 K): 1798.3 ± 180 J/K/mol [middle of 4 runs]; molar heat capacity at constant pressure (508.15 K): 1802 ± 180 J/K/mol [middle of 4 runs]; molar heat capacity at constant pressure (513.15 K): 1809.4 ± 180 J/K/mol and 1803.8 ± 180 J/K/mol and 1805.7 ± 180 J/K/mol
2 | CCCC[P+](C)(CCCC)CCCC.COS(=O)(=O)[O-] [tributylmethylphosphonium methyl sulfate] | 668.1 ± 68 J/K/mol and 660.8 ± 67 J/K/mol | 672 ± 68 J/K/mol and 665.4 ± 67 J/K/mol | 676.3 ± 68 J/K/mol and 669.7 ± 68 J/K/mol | 681.2 ± 69 J/K/mol and 674.3 ± 68 J/K/mol | 685.8 ± 69 J/K/mol and 678.9 ± 69 J/K/mol | 690.4 ± 70 J/K/mol and 683.8 ± 69 J/K/mol | 695.3 ± 70 J/K/mol and 687.4 ± 69 J/K/mol | 698.3 ± 70 J/K/mol and 692.4 ± 70 J/K/mol | 703.2 ± 71 J/K/mol and 697.3 ± 70 J/K/mol | 707.2 ± 71 J/K/mol and 702.2 ± 71 J/K/mol | 711.1 ± 72 J/K/mol and 705.5 ± 71 J/K/mol | 714.4 ± 72 J/K/mol and 711.1 ± 72 J/K/mol | 715 ± 72 J/K/mol and 715.4 ± 72 J/K/mol | 720 ± 73 J/K/mol and 718.6 ± 73 J/K/mol | 726.2 ± 73 J/K/mol and 721.3 ± 73 J/K/mol | 729.2 ± 74 J/K/mol and 723.9 ± 73 J/K/mol | 733.1 ± 74 J/K/mol and 728.8 ± 74 J/K/mol | 736.4 ± 74 J/K/mol and 732.4 ± 74 J/K/mol | 738.4 ± 75 J/K/mol and 737.4 ± 74 J/K/mol | 743.3 ± 75 J/K/mol and 741.6 ± 75 J/K/mol | molar heat capacity at constant pressure (443.15 K): 745.9 ± 75 J/K/mol and 744.6 ± 75 J/K/mol; molar heat capacity at constant pressure (448.15 K): 748.9 ± 76 J/K/mol and 747.6 ± 76 J/K/mol; molar heat capacity at constant pressure (453.15 K): 751.8 ± 76 J/K/mol and 750.8 ± 76 J/K/mol; molar heat capacity at constant pressure (458.15 K): 754.4 ± 76 J/K/mol and 754.1 ± 76 J/K/mol; molar heat capacity at constant pressure (463.15 K): 757.4 ± 76 J/K/mol and 756.1 ± 76 J/K/mol
3 | CCCCCCCCCCCCCC[P+](CCCCCC)(CCCCCC)CCCCCC.[Cl-] [trihexyl(tetradecyl)phosphonium chloride] | 838.7 ± 85 J/K/mol and 837.1 ± 84 J/K/mol and 837.6 ± 85 J/K/mol | 842.8 ± 85 J/K/mol [middle of 4 runs] | 850.6 ± 86 J/K/mol and 848.5 ± 86 J/K/mol and 849.1 ± 86 J/K/mol | 857.9 ± 87 J/K/mol and 855.3 ± 86 J/K/mol and 854.8 ± 86 J/K/mol | 863.6 ± 87 J/K/mol and 861.5 ± 87 J/K/mol and 860.5 ± 87 J/K/mol | 870.9 ± 88 J/K/mol and 868.3 ± 88 J/K/mol and 867.8 ± 88 J/K/mol | 876.6 ± 88 J/K/mol and 874.5 ± 88 J/K/mol and 874 ± 88 J/K/mol | 881.8 ± 89 J/K/mol [middle of 4 runs] | 889.6 ± 90 J/K/mol and 886.5 ± 90 J/K/mol and 888 ± 90 J/K/mol | 893.7 ± 90 J/K/mol [middle of 4 runs] | 901 ± 91 J/K/mol and 899.4 ± 91 J/K/mol and 898.4 ± 91 J/K/mol | 905.2 ± 91 J/K/mol [middle of 4 runs] | 910.3 ± 92 J/K/mol [middle of 4 runs] | 917.6 ± 93 J/K/mol and 915 ± 92 J/K/mol and 916.1 ± 92 J/K/mol | 922.8 ± 93 J/K/mol [middle of 4 runs] | 928 ± 94 J/K/mol [middle of 4 runs] | 933.2 ± 94 J/K/mol and 931.1 ± 94 J/K/mol and 932.7 ± 94 J/K/mol | 937.9 ± 95 J/K/mol [middle of 4 runs] | 944.1 ± 95 J/K/mol [middle of 4 runs] | 948.8 ± 96 J/K/mol [middle of 4 runs] | molar heat capacity at constant pressure (338.15 K): 835 ± 84 J/K/mol and 833.5 ± 84 J/K/mol and 834 ± 84 J/K/mol; molar heat capacity at constant pressure (443.15 K): 952.4 ± 96 J/K/mol and 953.4 ± 96 J/K/mol and 951.4 ± 96 J/K/mol; molar heat capacity at constant pressure (448.15 K): 957.1 ± 97 J/K/mol [middle of 4 runs]; molar heat capacity at constant pressure (453.15 K): 961.2 ± 97 J/K/mol [middle of 4 runs]; molar heat capacity at constant pressure (458.15 K): 965.4 ± 98 J/K/mol [middle of 4 runs]; molar heat capacity at constant pressure (463.15 K): 968 ± 98 J/K/mol [middle of 4 runs]
